Assay results as given in paper PMC10301603, “Potent and Selective Benzothiazole-Based Antimitotics with Improved Water Solubility: Design, Synthesis, and Evaluation as Novel Anticancer Agents” (Pharmaceutics, 2023).

What was measured:
bovine brain tubulin = test: Tubulin polymerization inhibition (turbidimetry); type: biochemical; details: for % TPI: compounds tested at 10 µM, with respect to the negative control; for IC50: concentration inhibiting 50% of microtubular protein polymerization in vitro, read-out: TPI IC50
Summary of the method: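 Turbidimetric assay using calf-brain microtubular protein: polymerization started by a shift from 4 °C to 37 °C and followed by absorbance at 450 nm. Percent inhibition calculated against a ligand-free control; IC50 determined only for compounds giving >50% inhibition at 10 µM. Triplicates in two independent experiments using separate protein preparations.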

tumor cell lines = test: Cell growth inhibition assay (MTT), summary statements over several cell lines; type: cell-based; details: glioblastoma cell lines; read-out: antiproliferative IC50
Method: Cells were plated in 96-well plates (100 µL/well) at the following concentrations: 30,000 cells/mL (HepG2, U87 MG, T98G, C6, LNCaP, PC3, and HT-29 cells) or 15,000 cells/mL (HeLa and MCF-7 cells). Previous experiments were performed to choose the optimal cell concentration (70–80% confluence) and avoid the formation of cell aggregates. Cells were incubated in complete DMEM or RPMI 1640 medium (see above) at 37 °C and 5% CO2 atmosphere for 24 h to allow for cell attachment to the plate. Then, every compound was added (10 µL/well) to a final concentration of 10 µM. Non-treated cells were used as negative controls. The antiproliferative activity of compounds was measured 72 h after the treatments using the MTT reagent (3-[4,5-dimethylthiazol-2-yl]-2,5-diphenyltetrazolium bromide), (MTT Thiazolyl Blue Tetrazolium Bromide, Sigma-Aldrich, St. Louis, MO, USA) dissolved in PBS at 5 mg/mL. Compounds showing antiproliferative effects at 10 µM were selected to determine their IC50 value. For that purpose, compounds were used at different concentrations ranging from 10^−10 to 10^−2 M. Measurements were performed in triplicate, and each experiment was repeated three times. The IC50 value was determined for every compound using Origin software (OriginLab, Washington, USA). To study the sensitivity to MDR efflux pumps of compounds, the IC50 values were determined by following the same procedure but in the presence of verapamil (final concentration of 10 µM).

| SMILES | % TPI (bovine brain tubulin) [%] | IC50 (bovine brain tubulin) [nM] | IC50 (tumor cell lines) [nM] |
| --- | --- | --- | --- |
| CCNC(=O)N(Cc1cccnc1)c1nc2ccc(OC)cc2s1 [Compound 8] | 100 | 2900 | – |
| COc1ccc2nc(N(C=O)Cc3cccnc3)sc2c1 [Compound 14, N-(6-methoxybenzo[d]thiazol-2-yl)-N-(pyridin-3-ylmethyl)formamide] | 87 | 4100 | 37 to 75 |
